# Experimental data from US20230218654A1, “COMPOSITIONS AND METHODS FOR TREATING HYPERGLYCEMIA IN TYPE-2 DIABETES” (The Board of Regents of the university of Oklahoma, priority 2020, published 2023).
# Entries after “also recorded” stand apart in the source; their conditions may differ.
# How the values were obtained:
# male C57BL6/J mice = experiment: Plasma/serum insulin and c-peptide after acute neddylation inhibitor treatment; type: in vivo
# Protocol: Male C57BL6/J mice on chow diet were treated with 45 mg/kg TAS4464 via subcutaneous injection at 9 am. Mice were then fasted for 6 hours and serum insulin was measured. Blood samples were collected at 0 min and 120 min and used for insulin measurement (n=4). Left-hand bars are controls. Right-hand bars are TAS4464 treatments.
# Male C57BL6/J mice on Western diet were treated with 15 mg/kg TAS4464 via subcutaneous injection at 9 am. Mice were then fasted for 6 hours and serum c-peptide were measured (n=5).
# Male C57BL6/J mice on chow diet were treated with 60 mg/kg MLN4924 via subcutaneous injection at 9 am. Mice were then fasted for 6 hours and serum c-peptide were measured (n=8)
# Aspartate aminotransferase (AST) and alanine aminotransferase (ALT) assay kits were purchased from Pointe Scientific (Canton, MI). Free fatty acid assay kit was purchased from Biovision Inc. (Milpitas, CA). Insulin ELISA kit was purchased from Crystal Chem Inc. (Elk Grove Village, IL).
# A hyperinsulinemic-euglycemic clamp study was conducted in which obese mice were treated with vehicle or MLN4924.
# [1] = tested on: primary human hepatocytes; experiment: Western blot of insulin signaling in primary human hepatocytes; type: cell-based
# Protocol: Cells were pre-treated with increasing dose of MLN4924 for 1 h followed by 100 nM insulin stimulation for 4 h. Western blot was then performed to evaluate insulin signaling activation reflected by AKT phosphorylation.
# Cells were treated with MLN4924 for 8 h. IRS1 band densitometry is shown as mean ± SEM of 8-9 independent batches. “* ”, vs. Vehicle, p less than 0.05.
# Cells were treated with MLN4924 for 8 h. IRS2 band densitometry is shown as mean ± SEM of 8-9 independent batches. “* ”, vs. Vehicle, p less than 0.05.
# FIG. 18B is a Western blot analysis showing that MLN4924 enhances hepatocyte insulin responsiveness (signaling) by delaying feedback IRS degradation. Primary human hepatocytes cells were serum starved for 16 h. Cells were then pre-treated with MLN4924 for 1 h followed by insulin stimulation for 4 h.
# IRS protein in IRS 1 and IRS2 band intensity was normalized to Actin band intensity. n=8-9. “*”, p<0.05 (unpaired t-test), vs. Vehicle.
# AML12 cells were a generous gift from Dr. Yanqiao Zhang (Northeast Ohio Medical University). AML12 cells were cultured in DMEM medium supplemented with a mixture of insulin-transferrin-selenium (#41400-045, ThermoFisher, Waltham, MA). For experiments, cells were cultured in serum free medium overnight before various treatments were initiated. The siGENOME SMARTpool siRNA and siControl were purchased from Dharmacon, Inc. (Lafayette, CO). […]
# [2] = tested on: differentiated C2C12 myocytes; experiment: Western blot of insulin signaling in differentiated C2C12 myocytes; type: cell-based; conditions: 500 nM, 1 h, then 100 nM insulin in time course
# Protocol: Differentiated C2C12 myocytes were pre-treated with MLN4924 (500 nM) for 1 h followed by 100 nM insulin treatment in time course.
# C2C12 myoblast cells were cultured in DMEM medium supplemented with 10% FBS. When cells grow to 60% confluency, differentiation into myocytes was induced by culturing cells in DMEM supplemented with 2% horse serum for 4-6 days. Cells were then serum starved overnight and treated with 500 nM MLN4924 or DMSO for 6 h and then stimulated with 100 nM insulin for 1 hour as indicated. Glucose uptake was measured with a Glucose uptake Glo^tm assay kit that was purchased from Promega (Madison, WI).
# Skeletal muscle is a major organ that is responsible for the majority of the blood glucose clearance during postprandial state. Insulin resistance in muscle causes impaired insulin-stimulated glucose uptake that contributes to hyperglycemia in diabetes. To determine if CRL inhibition in muscle cells may contribute to the insulin sensitizing and glucose lowering effect in obese mice, differentiated C2C12 myocytes were treated with MLN4924 to inhibit CRLs (FIG. 8A). […] To further determine if MLN4924 treatment increases muscle glucose clearance, a glucose tolerance test (GTT) was performed, in which reduction of glucose excursion is mainly attributed to blood glucose clearance by muscle.
# [3] = tested on: male mice fed WD for 6 weeks; experiment: Insulin tolerance test (ITT); type: in vivo; conditions: WD 6 weeks, 60 mg/kg SQ twice
# Protocol: Male C7BL/6J mice were first fed WD for 6 weeks, and then treated with 60 mg/kg MLN6924 via subcutaneous (SQ) injection at 5 pm on day 1 and 9 am on day 2. Mice were fasted from 9 am to 3 pm on day 2 and insulin tolerance test was performed with 0.5 U/kg insulin i.p. injection (n=5). All results are expressed as mean ± SEM. “*”, p<0.05, vs. Vehicle group at the same time point. Unpaired Student’s t-test was used to calculate the p value.
# Mice were treated with 2 doses of MLN4924 as described. After the second injection at 9 am, mice were fasted for 6 h from 9 am to 3 pm. Mice were injected intraperitoneally […] for PTT, and 0.5 U/kg insulin for ITT. Blood glucose was measured with a OneTouch Ultra glucose meter.
structure (smiles),measurement,setting,value
"NS(=O)(=O)OC[C@@H]1C[C@@H](n2ccc3c(N[C@H]4CCc5ccccc54)ncnc32)C[C@@H]1O [MLN4924, ((1S,2S,4R)-4-(4-((1S)-2,3-dihydro-1H-inden-1-ylamino)-7H-pyrrolo[2,3-d]pyrimidin-7-yl)-2-hydroxycyclopentyl) methyl sulfamate]",plasma insulin,male C57BL6/J mice; acute MLN4924 treatment,~ 0.55 ng/ml
same,serum c-peptide,male C57BL6/J mice; acute MLN4924 treatment,~ 1.1 ng/ml
same,serum c-peptide concentration,"male C57BL6/J mice; chow diet, 60 mg/kg SQ at 9 am, 6 h fast",elevated serum c-peptide concentration
same,IRS1 and IRS2 protein abundance,"[1]; MLN4924 (500 nM) 8 h, independent batches",consistently increased IRS1 and IRS2 protein abundance; also recorded: increased IRS protein abundance
same,insulin activation of AKT,"[1]; MLN4924 pre-treatment 1 h, 100 nM insulin 4 h",enhanced insulin activation of AKT; also recorded: increased IRS protein abundance and insulin-stimulated AKT activation
same,IRS1 and IRS2 degradation upon insulin stimulation,[2],delayed IRS1 and IRS2 degradation
same,insulin activation of AKT phosphorylation,[2],increased insulin activation of AKT phosphorylation
same,plasma glucose in response to insulin after 1 h,"[3]; 0.5 U/kg insulin i.p., similar in vehicle group",~ 25 mg/dL
same,basal glucose,[3]; 6 h fast,lower basal glucose
